Experimental findings from patent US4539149A, “β-Lactam antibacterial agents” (Beecham Group p.l.c., priority 1981, dated 1985) are described below.

SMILES strings stand for the structures. Converted amounts (≈) assume the structure as drawn. Counter-ions that a name gives are not always drawn. Bounds are passed on as bounds.

This assay concerns P. mirabilis 889. Nature of the assay: MIC against P. mirabilis 889. To be noted: for MIC: Proteus mirabilis, 889, P. mirabilis 889. The class given is cell-based.

Regarding `CC(=O)OCC1=C(C(=O)O)N2C(=O)[C@@](NC=O)(NC(=O)C(NC(N)=O)c3cccs3)[C@H]2SC1` (single isomer, unassigned) [Example 52 (Isomer 1), 7β-[2-[(Aminocarbonyl)amino]-2-(thien-2-yl)acetamido]-7α-formamidocephalosporanic acid, sodium salt (Isomer 1)], the “MIC against P. mirabilis 889” value was 125 µg/mL.
In the case of `CC(=O)OCC1=C(C(=O)O)N2C(=O)[C@@](NC=O)(NC(=O)C(NC(N)=O)c3cccs3)[C@H]2SC1` (single isomer, unassigned) [Example 52 (Isomer 2), 7β-[2-[(Aminocarbonyl)amino]-2-(thien-2-yl)acetamido]-7α-formamidocephalosporanic acid, sodium salt (Isomer 2)], the “MIC against P. mirabilis 889” value was determined as 25 µg/mL.
In general, MIC refers to the lowest concentration that inhibits growth of the organism. Low values mean inhibition by little substance, high ones a need for much substance. `CCN1CCN(C(=O)NC(C(=O)N[C@]2(NC=O)C(=O)N3C(C(=O)O)=C(CSc4nnnn4C)CS[C@@H]32)c2ccc(OC(C)=O)c(OC(C)=O)c2)C(=O)C1=O` (single isomer, unassigned) [Example 57 (isomer 2), 7β-[2-(3,4-Diacetoxyphenyl)-2-[(4-ethyl-2,3-dioxopiperazin-1-yl)carbonylamino]acetamido]-7α-formamido-3-[(1-methyl-1H-tetrazol-5-yl)thiomethyl]ceph-3-em-4-carboxylic acid, sodium salt, isomer 2] returned an MIC of 0.1 µg/mL.
The same measure, in the same setting: in the case of `CC1(C)S[C@H]2N(C(=O)[C@@]2(NC=O)NC(=O)COc2ccccc2)[C@H]1C(=O)O` [Example 1, 6α-Formamido-6β-phenoxyacetamido penicillanic acid sodium salt] it was more than 100 µg/mL; in that of `CC1(C)S[C@H]2N(C(=O)[C@@]2(NC=O)NC(=O)C(C(=O)O)c2ccccc2)[C@H]1C(=O)O` (stereo partly drawn) [Example 2, 6α-Formamido-6β-(2-carboxy-2-phenylacetamido)penicillanic acid, di-sodium salt], 50 µg/mL; in that of `CC1(C)S[C@H]2N(C(=O)[C@@]2(NC=O)NC(=O)C(C(=O)O)c2ccsc2)[C@H]1C(=O)O` (stereo partly drawn) [Example 3, 6α-Formamido-6β-[2-carboxy-2-(3-thienyl)acetamido]penicillanic acid, di-sodium salt], 25 µg/mL.
The same measure, in the same setting: the result for `CCN1CCN(C(=O)N[C@@H](C(=O)N[C@]2(NC=O)C(=O)N3[C@@H](C(=O)O)C(C)(C)S[C@@H]32)c2ccccc2)C(=O)C1=O` [Example 4, 6α-Formamido-6β-[D-2-[(4-ethyl-2,3-dioxopiperazin-1-yl)carbonylamino]-2-phenylacetamido]penicillanic acid, sodium salt] reads 0.2 µg/mL; that for `CCN1CCN(C(=O)N[C@H](C(=O)N[C@]2(NC=O)C(=O)N3[C@@H](C(=O)O)C(C)(C)S[C@@H]32)c2ccc(O)cc2)C(=O)C1=O` [Example 6, 6α-Formamido-6β-[L-2-[(4-ethyl-2,3-dioxopiperazin-1-yl)carbonylamino]-2-(4-hydroxyphenyl)acetamido]penicillanic acid, sodium salt], 125 µg/mL; that for `CC1(C)S[C@H]2N(C(=O)[C@@]2(NC=O)NC(=O)[C@H](NC(=O)Nc2cnc(Nc3ccccc3)nc2O)c2ccccc2)[C@H]1C(=O)O` [Example 7, 6α-Formamido-6β-[D-2-(2-phenylamino-4-hydroxypyrimidin-5-ylureido)-2-phenylacetamido]penicillanic acid, di-sodium salt], 5 µg/mL.
With `CC1(C)S[C@H]2N(C(=O)[C@@]2(NC=O)NC(=O)[C@H](N)c2ccccc2)[C@H]1C(=O)O` [Example 8, 6α-Formamido-6β-(D-2-amino-2-phenylacetamido)penicillanic acid], the MIC stood at 25 µg/mL (≈ 63.7 µM).
The same measure, in the same setting: in the case of `CC1(C)S[C@H]2N(C(=O)[C@@]2(NC=O)NC(=O)[C@H](N)c2ccc(O)cc2)[C@H]1C(=O)O` [Example 9, 6α-Formamido-6β-[D-2-amino-2-(4-hydroxyphenyl)acetamido]penicillanic acid] it was 50 µg/mL (≈ 122 µM).
On the same count and under the same terms, in the case of `CN(C(=O)C=Cc1ccccc1)C(=O)N[C@@H](C(=O)N[C@]1(NC=O)C(=O)N2[C@@H](C(=O)O)C(C)(C)S[C@@H]21)c1ccccc1` [Example 10, 6α-Formamido-6β-[D-2-(3-cinnamoyl-3-methylureido)-2-phenylacetamido]penicillanic acid, sodium salt] it was 1 µg/mL; in that of `CC1(C)S[C@H]2N(C(=O)[C@@]2(NC=O)NC(=O)[C@H](NC(=O)N2CCNC2=O)c2ccccc2)[C@H]1C(=O)O` [Example 11, 6α-Formamido-6β-[D-2-(2-oxoimidazolidin-1-ylcarbonylamino)-2-phenylacetamido]penicillanic acid sodium salt], 1 µg/mL.
For the compound `CC1(C)S[C@H]2N(C(=O)[C@@]2(NC=O)NC(=O)[C@H](NC(=O)N2CCN(S(C)(=O)=O)C2=O)c2ccccc2)[C@H]1C(=O)O` [Example 12, 6α-Formamido-6β-[D-2-(3-methylsulphonyl-2-oxoimidazolidin-1-ylcarbonylamino)-2-penylacetamido]penicillanic acid, sodium salt], the MIC was 0.5 µg/mL.
`CN(C(=O)N[C@@H](C(=O)N[C@]1(NC=O)C(=O)N2[C@@H](C(=O)O)C(C)(C)S[C@@H]21)c1ccccc1)C(=O)c1cccs1` [Example 13, 6α-Formamido-6β-[D-2-[3-methyl-3-(2-thienylcarbonyl)ureido]-2-phenylacetamido]penicillanic acid, sodium salt] returned a minimal inhibitory concentration (MIC) of 2.5 µg/mL.
The compound `CC1(C)S[C@H]2N(C(=O)[C@@]2(NC=O)NC(=O)[C@H](NC(=O)c2cnc3ncnn3c2O)c2ccccc2)[C@H]1C(=O)O` [Example 14, 6α-Formamido-6β-[D-2-(7-hydroxy-1,2,4-triazolo[2,3-a]pyrimidin-6-ylcarboxamido)-2-phenylacetamido]penicillanic acid, disodium salt] had an MIC of more than 100 µg/mL.
As to `CC1(C)S[C@H]2N(C(=O)[C@@]2(NC=O)NC(=O)[C@H](NC(=O)c2cnc(NCc3ccccc3)nc2O)c2ccccc2)[C@H]1C(=O)O` [Example 15, 6α-Formamido-6β-[D-2-(2-benzylamino-4-hydroxypyrimidin-5-ylcarboxamido)-2-phenylacetamido]penicillanic acid, disodium salt], the MIC amounted to 50 µg/mL.
With `CC1(C)S[C@H]2N(C(=O)[C@@]2(NC=O)NC(=O)[C@H](NC(=O)N2CCNC2=O)c2ccc(O)cc2)[C@H]1C(=O)O` [Example 16, 6α-Formamido-6β-[D-2-(2-oxoimidazolidin-1-ylcarbonylamino)-2-(4-hydroxyphenyl)acetamido]penicillanic acid, sodium salt], it took 0.5 µg/mL to inhibit growth (MIC).
Still for that read-out and setting: the result for `CN(C(=O)C=Cc1ccccc1)C(=O)N[C@@H](C(=O)N[C@]1(NC=O)C(=O)N2[C@@H](C(=O)O)C(C)(C)S[C@@H]21)c1ccc(O)cc1` [Example 17, 6α-Formamido-6β-[D-2-(3-cinnamoyl-3-methylureido)-2-(4-hydroxyphenyl)acetamido]penicillanic acid, sodium salt] reads 2.5 µg/mL.
For `CCN1CCN(C(=O)N[C@@H](C(=O)N[C@]2(NC=O)C(=O)N3[C@@H](C(=O)O)C(C)(C)S[C@@H]32)c2ccc(OC(C)=O)c(OC(C)=O)c2)C(=O)C1=O` [Example 18, 6β-[D-2-[(4-Ethyl-2,3-dioxopiperazin-1-yl)carbonylamino]-2-(3,4-diacetoxyphenyl)acetamido]-6α-formamidopenicillanic acid, sodium salt], the MIC came out at 0.5 µg/mL.
